Results published in patent US20040035690A1, “Method and apparatus for chemical and biochemical reactions using photo-generated reagents” (The Regents Of The University Of Michigan, priority 1998, published 2004).
“Also recorded” adds a separate entry of the source. No end group written: not given here. dns = not defined here

How the values were obtained:
[1] = As^3+ ion binding assay of oligopeptides on microarray (fluorescence); settings: peptide microarray made with acid PGR; NaAsO2
Method: (§1) 5-dimethylaminonaphthalene-1-sulfonyl chloride (dansyl chloride, dns) generated fluorescence was also performed by contacting the solid substrate with a mixture of dns (1.25 mmol) and triethylamine (0.125 mmol) in DMF for 4 h at room temperature. The fluorescence detection was done in the same manner as previously described for FAM with the exception that the excitation wavelength was 365 nm.
For the As^3+ ion assay, the assay was performed by the same procedure as the Pb^2+ assay but the buffer was 10 mM sodium acetate (pH 4.0) containing 100 mM NaCl and 0.1 mM sodium arsenite (NaAsO2) was the metal ion solution.

[2] = Pb^2+ ion binding assay of oligopeptides on microarray (fluorescence); settings: peptide microarray made with acid PGR; lead chloride in buffer
Method: as §1
For the Pb^2+ ion assay, solid substrates comprising oligopeptides were washed with a buffer solution containing 100 mM HEPES (pH 7.1) and 10% methanol. Samples were then treated with 0.1 mM lead chloride in buffer overnight at room temperature. After washing with buffer solution and methanol the solid substrates were left to dry in an inert atmosphere in the dark.

mouse MAb DO-1 = assay: Oligopeptide immunoassay with MAb DO-1 and FITC-tagged secondary antibody; type: binding; settings: hexapeptide microarray made with acid PGR, FITC-tagged rabbit anti-mouse IgG
Method: Solid substrates comprising oligopeptids were washed with PBS (phosphate-buffered saline, 25 mM NaH2PO4, 125 mM NaCl, pH 7.4), PBST (PBS, 0.2% (V/V) Tween 20), and PBS, respectively. Next, the solid substrates were then incubated with mouse MAb DO-1, which recognizes amino acid residue 20-25 of human tumor suppressor protein p53, in PBS at room temperature for 2 h. After washing with PBST and PBS, samples were treated with FITC-tagged secondary rabbit anti-mouse immunoglobulin (IgG) overnight at 4° C. Following washing with PBST and PBS, fluorescence of the solid substrate was measured.

Substance	fluorescence labeling / fluorescence intensity on Pb^2+ binding [2]	fluorescence labeling / fluorescence intensity on binding of MAb DO-1 (mouse MAb DO-1)	also measured
dns-Glu-Glu-Glu-Glu			fluorescence labeling / fluorescence intensity on As^3+ binding [1]: fluoresence intensity is greatest; also recorded: selective labeling
dns-Gly-Gly-Gly-Gly (dns-GGGG; reading uncertain; also: printed as dns-Gly-Gly-Gly-Gly) [das-Gly-Gly-Gly-Gly, dansyl-labeled tetrapeptide]	increase is fluorescence is not observed		
dns-Cys-Cys-Cys-Cys	increase is fluorescence is not observed		
H2N-Glu-Glu-Glu-Glu (EEEE; printed: Glu-Glu-Glu-Glu) [tetrapeptide analogue on the microarray]	increase is fluorescence is not observed		
DSLGKL: hexapeptide analogue of SDLHKL on the microarray (DSLHKL; printed: Asp-Ser-Leu-His-Lys-Leu)		fluorescence intensity is not detected	
SGLHKL [hexapeptide analogue of SDLHKL on the microarray]		fluorescence intensity is not detected	
SDLHKL [hexapeptide, amino acid residue 20-25 of human p53 protein]		selective labeling	fluorescence labeling / fluorescence intensity on binding of MAb DO-1 (mouse MAb DO-1; listed as SDLHKL): fluorescence intensity is detected
dns-Glu-Cys-Glu-Glu	significant increase in fluorescence intensity; also recorded: selective labeling		
